These results are taken from patent US7521062B2, “Thiosemicarbazones as anti-virals and immunopotentiators” (Novartis Vaccines & Diagnostics, Inc., priority 2002, dated 2009).

Assay [1] relates to TNF-alpha production by human PBMC. The experiment in a line: TNF-alpha production by human PBMC (ELISA). The assay is classed as cell-based. The settings on record: for TNFa production: cytokine secretion of hPBMC after stimulation with thiosemicarbazone compounds; for SMIP activity (cytokine induction, TNF-alpha and IL-12 p40, % of LPS activity): human PBMC, 5 μM, FIG. 4. How it is done: Candidate small molecule immuno-potentiators can be identified in vitro. Compounds are screened in vitro for their ability to stimulate human peripheral blood mononuclear cells to produce cytokines (e.g. TNF-alpha and IL-12 p40). HCV antivirals were identified having this activity. These small molecule immuno-potentiators have potential utility as adjuvants and immuno-therapeutics.
TNF-alpha production by human PBMC was measured using a commercial ELISA from supernatants of cells stimulated with the indicated compounds for 18 to 24 hours All test compounds were used at a final concentration of 5 μM/ml. Untreated PBMC (Cells) and LPS (0.1 ng/ml), CPG (10 ng/ml) and/or ALTTE (5 μM/ml) treated PBMC served as negative and positive controls, respectively.
Table 2. Cytokine secretion of hPBMC after stimulation with thiosemicarbazone compounds.
High Throughput Screening (ITS) for small molecule immune potentiators; SMIPs: Attention is drawn to FIG. 3. Various compounds were evaluated for their ability to produce cytokines in response to the small molecule compounds using a modified sandwich ELISA. Compounds are screened for their TNF inducing. “Hits” are selected based on their TNF-inducing activity relative to an optimal dose a strong TNF inducer. The robustness of the assay and low backgrounds have allowed for the routine selection of hits with ˜10% of this activity which is normally between 5-10× background (cells alone). Selected hits are then subjected to confirmation for their ability to induce cytokines from multiple donors at decreasing concentrations. Those compounds with consistent activity at or below 5 μM are considered confirmed.
Thiosemicarbazones compounds with and without anti-HCV activity were screened for their capacity to activate immune cells. Structural analogs of this scaffold have been tested for their ability to induce cytokines from human PBMC and murine splenocytes. […] All compounds were tested at a final concentration of 5 μM except for poly I:C (PIC) and the 1806 oligodinucleotide (CpG) which were used at 10 μg/ml and 10 ng/ml respectively.
For orientation: ELISA stands for enzyme-linked immunosorbent assay.

The test system of assay [2] is HCV replicon RNA in Huh-11-7 or Huh 9-13 cells. Put plainly: HCV replicon cell based assay (quantification of HCV replicon RNA by RT-PCR, normalized to GAPDH). The settings on record: separate/independent assays. As for the experimental part: Quantification of HCV replicon RNA in Cell Lines (HCV Cell Based Assay):
Cell lines, including Huh-11-7 or Huh 9-13, harboring HCV replicons (Lohmann, et al Science 285:110-113, 1999) are seeded at 5×10^3 cells/well in 96 well plates and fed media containing DMEM (high glucose), 10% fetal calf serum, penicillin-streptomycin and non-essential amino acids. Cells are incubated in a 5% CO2 incubator at 37° C. At the end of the incubation period, total RNA is extracted and purified from cells using Qiagen Rneasy 96 Kit (Catalog No. 74182). To amplify the HCV RNA so that sufficient material can be detected by an HCV specific probe (below), primers specific for HCV (below) mediate both the reverse transcription (RT) of the HCV RNA and the amplification of the cDNA by polymerase chain reaction (PCR) using the TaqMan One-Step RT-PCR Master Mix Kit (Applied Biosystems catalog no. 4309169). […]
Detection of the RT-PCR product was accomplished using the Applied Biosystem (ABI) Prism 7700 Sequence Detection System (SDS) that detects the fluorescence that is emitted when the probe, which is labeled with a fluorescence reporter dye and a quencher dye, is processed during the PCR reaction. The increase in the amount of fluorescence is measured during each cycle of PCR and reflects the increasing amount of RT-PCR product. […] The data is analyzed using the ABI SDS program version 1.7. […]
A general note: In antiviral work, replicon cells carry a viral genome segment that copies itself.

Turning to `NC(=S)N/N=C/c1ccc(NCCc2ccc(Cl)cc2)c([N+](=O)[O-])c1` [Example 87, 4-{[2-(4-chlorophenyl)ethyl]amino}-3-nitrobenzaldehydethiosemicarbazone], the TNFa production in assay [1] amounted to 1.25 ng/10^6 cells/ml.
As for `NC(=S)N/N=C/c1cccc(OCc2ccccc2)c1` [Example 7, 3-[(phenylmethyl)oxy]benzaldehydethiosemicarbazone], the TNFa production in assay [1] worked out at 0 ng/10^6 cells/ml.
With `COc1cc(/C=N/NC(N)=S)cc(Br)c1OCc1ccccc1F` [Example 39, 3-bromo-4-{[(2-fluorophenyl)methyl]oxy}-5-(methyloxy)benzaldehydethiosemicarbazone], the TNFa production in assay [1] is 5 ng/10^6 cells/ml.
With `CCN(CC)c1ccc(/C=N/NC(N)=S)c(OCc2ccc(Cl)cc2)c1` [Example 29, 2-{[(4-chlorophenyl)methyl]oxy}-4-(diethylamino)benzaldehydethiosemicarbazone], in assay [2], the anti-HCV activity result was “possess both SMIP and anti-HCV activity”. Further, the “SMIP activity (cytokine induction, TNF-alpha and IL-12 p40, % of LPS activity)” value in assay [1] is “possess both SMIP and anti-HCV activity”.
As to `C/C(=N\NC(N)=S)c1sc(-c2ncc(C(F)(F)F)cc2Cl)nc1C` [Example 114], the TNFa production in assay [1] was 1.7 ng/10^6 cells/ml.
Same read-out and setting: in the case of `Cc1ccc2c(c1)c1c(n2C)/C(=N/NC(N)=S)CCC1` [Example 115, (1E)-6,9-dimethyl-2,3,4,9-tetrahydro-1H-carbazol-1-onethiosemicarbazone] it was 1.25 ng/10^6 cells/ml.
Consider `NC(=S)N/N=C/c1ccccn1` [Example 113, pyridine-2-carbaldehydethiosemicarbazone], for which the anti-HCV activity result in assay [2] is “weak or absent anti-HCV effects”. Further, in assay [1], the TNFa production is listed as 2.34 ng/10^6 cells/ml; the “SMIP activity (cytokine induction, TNF-alpha and IL-12 p40, % of LPS activity)” value was “potent SMIP activity”.
For `NC(=S)N/N=C/c1ccc(NCCc2cccc(Cl)c2)c([N+](=O)[O-])c1` [Example 86, 4-{[2-(3-chlorophenyl)ethyl]amino}-3-nitrobenzaldehydethiosemicarbazone], the TNFa production in assay [1] was determined as 5 ng/10^6 cells/ml.
Still for that read-out and setting: under `NC(=S)N/N=C/c1ccc(-c2cccc(Cl)c2)o1` [Example 12, 5-(3-chlorophenyl)furan-2-carbaldehyde thiosemicarbazone] stands 2.32 ng/10^6 cells/ml.
